# Data: BigSolDB 2.1
# Settings: in tetrachloromethane
smiles,measurement,setting,value
C[C@@H]1CC[C@@]2(OC1)O[C@H]1C[C@H]3[C@@H]4CC=C5C[C@@H](O)CC[C@]5(C)[C@H]4CC[C@]3(C)[C@H]1[C@@H]2C,solubility (mole fraction),291.95 K,0.00286
same,solubility (mole fraction),297.45 K,0.00334
same,solubility (mole fraction),299.85 K,0.00381
same,solubility (mole fraction),302.75 K,0.00429
same,solubility (mole fraction),306.95 K,0.00487
same,solubility (mole fraction),308.95 K,0.00536
same,solubility (mole fraction),311.35 K,0.00578
same,solubility (mole fraction),313.65 K,0.0063
same,solubility (mole fraction),316.15 K,0.00676
same,solubility (mole fraction),317.95 K,0.00718
same,solubility (mole fraction),318.95 K,0.00763
same,solubility (mole fraction),320.55 K,0.00804
same,solubility (mole fraction),322.35 K,0.00857
same,solubility (mole fraction),323.65 K,0.00905
same,solubility (mole fraction),325.15 K,0.0095
same,solubility (mole fraction),326.35 K,0.0099
same,solubility (mole fraction),327.85 K,0.0105
same,solubility (mole fraction),328.95 K,0.0109
